From the supplement of paper PMC10307832

Key:
Test in all cases: relative viability (nuclei count vs DMSO), 5 days (fraction); higher = more cells survive
[1] = compound: CC1=C(C(=O)N2C=CSC2=N1)CCN3CCC(=C(C4=CC=CC=C4)C5=CC=C(C=C5)F)CC3 + CS(=O)(=O)N1CCN(Cc2cc3nc(-c4cccc5[nH]ncc45)nc(N4CCOCC4)c3s2)CC1 [Pictilisib] (partner 1 µM)
How it was run: (§1)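 Lung cancer cell lines in 1536-well plates got either a single drug or a fixed anchor-drug dose together with five library-drug doses (not always all listed) in √10 steps, by pin tool, on the day after seeding. Nuclei were counted after 5 days, and relative viability is the treated-to-vehicle ratio of nuclei counts. Values are medians of duplicate plates.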

[2] = compound: CC1=C(C(=O)N2C=CSC2=N1)CCN3CCC(=C(C4=CC=CC=C4)C5=CC=C(C=C5)F)CC3 + C[C@]1(O)C[C@@H](c2nc(-c3ccc4ccc(-c5ccccc5)nc4c3)c3c(N)nccn32)C1 [Linsitinib] (partner 1 µM)
How it was run: as §1

[3] = compound: CC1=C(C(=O)N2C=CSC2=N1)CCN3CCC(=C(C4=CC=CC=C4)C5=CC=C(C=C5)F)CC3 + Cc1nc(NC(=O)N2CCC[C@H]2C(N)=O)sc1-c1ccnc(C(C)(C)C(F)(F)F)c1 [Alpelisib] (partner 2 µM)
How it was run: as §1

[4] = compound: CC1=C(C(=O)N2C=CSC2=N1)CCN3CCC(=C(C4=CC=CC=C4)C5=CC=C(C=C5)F)CC3 + Nc1ncn([C@H]2C[C@H](O)[C@@H](CO)O2)c(=O)n1 [Decitabine] (partner 2 µM)
How it was run: as §1

Cell Line	relative viability ([1]; first compound 0.08 µM)	relative viability ([1]; first compound 0.253 µM)	relative viability ([1]; first compound 0.8 µM)	relative viability ([1]; first compound 2.53 µM)	relative viability ([1]; first compound 8 µM)	relative viability ([2]; first compound 0.08 µM)	relative viability ([2]; first compound 0.253 µM)	relative viability ([2]; first compound 0.8 µM)	relative viability ([2]; first compound 2.53 µM)	relative viability ([2]; first compound 8 µM)	relative viability ([3]; first compound 0.08 µM)	relative viability ([3]; first compound 0.253 µM)	relative viability ([3]; first compound 0.8 µM)	relative viability ([3]; first compound 2.53 µM)	relative viability ([3]; first compound 8 µM)	relative viability ([4]; first compound 0.08 µM)	relative viability ([4]; first compound 0.253 µM)	relative viability ([4]; first compound 0.8 µM)	relative viability ([4]; first compound 2.53 µM)	relative viability ([4]; first compound 8 µM)
201T	0.647	0.779	0.632	0.712	0.808	1.05	1.01	1	1.08	1.13	1.02	1.04	1.08	1.07	0.852	0.884	0.89	0.845	0.9	0.804
NCI-H358	0.301	0.338	0.326	0.38	0.305	0.819	0.74	0.779	0.874	0.561	0.821	0.912	0.744	1.07	0.553	0.211	0.235	0.244	0.256	0.202
NCI-H1755	0.387	0.482	0.42	0.423	0.37	1.04	0.98	0.973	0.981	0.779	0.807	0.856	0.994	1.07	0.69	0.677	0.784	0.721	0.66	0.754
NCI-H1355	0.445	0.504	0.534	0.472	0.385	0.775	0.876	0.844	0.856	0.588	0.79	0.948	0.854	0.899	0.623	0.38	0.382	0.369	0.354	0.368
LCLC-103H	0.884	0.636	0.449	0.618	0.566	1.03	1.04	0.973	0.924	0.858	1.08	1	1.12	1.01	0.918	0.685	0.702	0.69	0.826	0.646
LOU-NH91	0.561	0.503	0.545	0.55	0.527	0.923	0.932	1.01	1.02	0.821	0.687	0.709	0.807	0.749	0.677	0.796	0.832	0.834	0.926	0.792
NCI-H2085	0.449	0.462	0.45	0.442	0.409	1.1	0.92	1.02	1.06	0.7	0.869	0.909	0.928	0.943	0.773	0.553	0.563	0.504	0.573	0.559
NCI-H661	0.404	0.382	0.338	0.352	0.361	0.581	0.607	0.675	0.483	0.553	0.658	0.498	0.461	0.623	0.427	0.528	0.623	0.55	0.528	0.387
NCI-H1792	0.241	0.257	0.251	0.232	0.308	0.446	0.353	0.606	0.379	0.575	0.679	0.6	0.722	0.611	0.545	0.312	0.561	0.614	0.426	0.19
EKVX	0.38	0.412	0.479	0.408	0.36	0.999	1.05	1.09	0.951	0.839	0.719	0.868	1.05	1.14	0.652	0.345	0.335	0.376	0.366	0.386
NCI-H1651	0.621	0.676	0.51	0.684	0.495	0.925	0.863	0.969	1.19	0.673	1.19	0.972	1.03	0.88	0.785	0.644	0.604	0.587	0.597	0.526
EPLC-272H		0.332	0.259	0.306	0.359		1.17	1.2	1.09	0.984		0.878	1.05	0.852	0.737	0.431	0.312	0.37	0.396	0.376
RERF-LC-KJ	0.627	0.495	0.511	0.497	0.487	0.879	0.933	0.883	0.832	0.672	0.743	0.844	0.8	0.758	0.633	0.715	0.746	0.647	0.62	0.572
NCI-H2347	0.417	0.691	0.764	0.394	0.614	0.921	0.958	0.977	0.932	0.804	0.942	0.855	1.18	1.02	0.791	0.375	0.693	0.667	0.621	0.513
NCI-H838	0.439	0.489	0.466	0.58	0.444	1.02	1.02	1.02	1.31	0.809	0.964	0.979	1.02	1.32	0.773	0.488	0.459	0.472	0.547	0.414
SW 1573		0.478	0.478	0.486	0.264	0.843	0.804	0.795	0.835	0.721	0.829	0.829	0.739	0.657	0.469	0.453	0.524	0.505	0.633	0.447
SK-MES-1	0.386	0.396	0.357	0.33	0.261	1.1	1.2	1.08	1.03	0.789	0.881	0.944	0.835	0.87	0.554	0.572	0.391	0.375	0.461	0.353
NCI-H2023	0.257	0.239	0.238	0.263	0.28	0.63	0.598	0.718	0.723	0.582	0.579	0.587	0.549	0.697	0.584	0.257	0.248	0.217	0.24	0.156
NCI-H1666	0.393	0.434	0.381	0.461	0.431	0.86	0.734	0.768	0.886	0.621	0.969	1.02	0.902	1.06	0.794	0.714	0.786	0.678	0.873	0.616
NCI-H441		0.519	0.464	0.563	0.366		0.541	0.777	0.654	0.355		0.638	0.79	1.01	0.588	0.263	0.255	0.242	0.247	0.239
A549	0.643	0.434	0.467	0.567	0.422		0.61	0.658	0.432	0.309	0.915	0.923	0.747	0.871	0.275	0.206	0.249	0.266	0.282	0.194
NCI-H596	0.435	0.418	0.38	0.369	0.386	0.935	1.1	1.2	1.03	0.755	0.396	0.478	0.624	0.503	0.426	0.908	0.939	1.06	1.01	0.761
H3255	0.448	0.389	0.515	0.537	0.4	1	0.888	1.02	1.03	0.726	0.52	0.623	0.727	0.712	0.587	0.688	0.549	0.521	0.664	0.495
NCI-H2087	0.769	0.868	0.835	0.997	0.554	1.06	0.9	0.852	1.12	0.745	0.999	1.1	1.06	1.24	0.763	0.245	0.236	0.255	0.286	0.191
BEN	0.521	0.602	0.562	0.516	0.505	0.781	0.967	1.07	0.847	0.79	0.826	1.09	1.09	0.974	0.69	0.807	0.703	0.702	0.737	0.708
NCI-H1975	0.337	0.296	0.271	0.291	0.273	0.984	0.817	0.982	0.908	0.519	0.674	0.616	0.656	0.667	0.451	0.347	0.507	0.36	0.408	0.353
NCI-H520	0.315	0.334	0.348	0.33	0.292	1.13	0.723	0.902	0.943	0.768	0.906	0.594	0.777	1.01	0.794	0.471	0.565	0.519	0.515	0.445
